Test: xn = mol fraction of the nth substance listed
Details: 81.5 kPa, Liquid; for speed of sound: Sing-around technique in a fixed-path interferometer; for mass density: Vibrating tube method

CCn1cc[n+](C)c1.F[B-](F)(F)F [1-ethyl-3-methylimidazolium tetrafluoroborate] + CC(=O)N(C)C
Details	mass density [kg/m3]	speed of sound [m/s]
293.15 K, x1 = 0.131	1020.02	1520.9
293.15 K, x1 = 0.198	1054.86	1544.9
293.15 K, x1 = 0.2976	1098.69	1566.5
293.15 K, x1 = 0.3868	1134.17	1581.8
293.15 K, x1 = 0.4734	1164.33	1594.3
293.15 K, x1 = 0.563	1190.97	1606.8
293.15 K, x1 = 0.7089	1230.24	1620
293.15 K, x1 = 0.7973	1244.59	1625.7
293.15 K, x1 = 0.8821	1257.25	1629.9
293.15 K, x1 = 1	1285.95	1640.4
298.15 K, x1 = 0.131	1015.67	1502.5
298.15 K, x1 = 0.198	1050.63	1527.6
298.15 K, x1 = 0.2976	1094.55	1550.4
298.15 K, x1 = 0.3868	1130.11	1566.4
298.15 K, x1 = 0.4734	1160.32	1579.8
298.15 K, x1 = 0.563	1187.07	1592.9
298.15 K, x1 = 0.7089	1226.34	1606.9
298.15 K, x1 = 0.7973	1240.73	1613
298.15 K, x1 = 0.8821	1253.4	1617.4
298.15 K, x1 = 1	1282.14	1628.4
303.15 K, x1 = 0.131	1011.32	1484.4
303.15 K, x1 = 0.198	1046.39	1510.4
303.15 K, x1 = 0.2976	1090.43	1534.3
303.15 K, x1 = 0.3868	1126.06	1551.3
303.15 K, x1 = 0.4734	1156.33	1565.3
303.15 K, x1 = 0.563	1183.16	1579.1
303.15 K, x1 = 0.7089	1222.46	1594.1
303.15 K, x1 = 0.7973	1236.88	1600.4
303.15 K, x1 = 0.8821	1249.55	1605.1
303.15 K, x1 = 1	1278.34	1616
308.15 K, x1 = 0.131	1006.92	1466.5
308.15 K, x1 = 0.198	1042.17	1493.4
308.15 K, x1 = 0.2976	1086.31	1518.5
308.15 K, x1 = 0.3868	1122.03	1536.2
308.15 K, x1 = 0.4734	1152.37	1551.1
308.15 K, x1 = 0.563	1179.25	1565.5
308.15 K, x1 = 0.7089	1218.61	1581.4
308.15 K, x1 = 0.7973	1233.06	1588
308.15 K, x1 = 0.8821	1245.73	1592.9
308.15 K, x1 = 1	1274.55	1604.9
313.15 K, x1 = 0.131	1002.63	1448.8
313.15 K, x1 = 0.198	1037.96	1476.5
313.15 K, x1 = 0.2976	1082.21	1502.7
313.15 K, x1 = 0.3868	1118	1521.4
313.15 K, x1 = 0.4734	1148.41	1536.9
313.15 K, x1 = 0.563	1175.34	1552.1
313.15 K, x1 = 0.7089	1214.78	1568.8
313.15 K, x1 = 0.7973	1229.25	1575.7
313.15 K, x1 = 0.8821	1241.92	1580.8
313.15 K, x1 = 1	1270.78	1593.4
318.15 K, x1 = 0.131	–	1431.2
318.15 K, x1 = 0.198	–	1459.8
318.15 K, x1 = 0.2976	–	1487.1
318.15 K, x1 = 0.3868	–	1506.6
318.15 K, x1 = 0.4734	–	1522.9
318.15 K, x1 = 0.563	–	1538.7
318.15 K, x1 = 0.7089	–	1556.3
318.15 K, x1 = 0.7973	–	1563.5
318.15 K, x1 = 0.8821	–	1568.9
318.15 K, x1 = 1	–	1582

Reference: the NIST ThermoML archive (doi:10.1021/acs.jced.6b00496)
